# Assays:
# [1] = target: hNET (norepinephrine transporter) (Homo sapiens, UniProt P23975); experiment: in vitro binding affinity
# dopamine D4 receptor = dopamine D4 receptor (Homo sapiens, UniProt P21917); experiment: Ki, apparently from the radioligand screening panel
# [2] = target: hSERT (serotonin transporter) (Homo sapiens, UniProt P31645); experiment: in vitro binding affinity
# [3] = target: hDAT (dopamine transporter) (Homo sapiens, UniProt Q01959); experiment: in vitro binding affinity
# Sequence of hDAT (dopamine transporter) (Q01959 whole entry): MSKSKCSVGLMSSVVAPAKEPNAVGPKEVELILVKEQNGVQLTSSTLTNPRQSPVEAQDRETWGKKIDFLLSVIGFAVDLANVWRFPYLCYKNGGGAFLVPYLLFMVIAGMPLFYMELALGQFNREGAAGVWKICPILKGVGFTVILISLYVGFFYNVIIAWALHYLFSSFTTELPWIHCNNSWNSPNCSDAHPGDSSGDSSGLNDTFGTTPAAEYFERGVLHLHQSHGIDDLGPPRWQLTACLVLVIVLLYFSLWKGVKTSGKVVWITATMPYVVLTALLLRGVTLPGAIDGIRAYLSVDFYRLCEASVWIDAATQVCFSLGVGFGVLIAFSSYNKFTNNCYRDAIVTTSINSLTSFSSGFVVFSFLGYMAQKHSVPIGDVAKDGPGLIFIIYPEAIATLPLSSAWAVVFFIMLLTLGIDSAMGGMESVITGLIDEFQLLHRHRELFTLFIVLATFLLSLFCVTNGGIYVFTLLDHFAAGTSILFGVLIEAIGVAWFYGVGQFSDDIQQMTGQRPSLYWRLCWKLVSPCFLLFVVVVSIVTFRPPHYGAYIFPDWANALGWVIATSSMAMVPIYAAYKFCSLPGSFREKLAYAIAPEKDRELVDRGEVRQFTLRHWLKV
# Sequence of hSERT (serotonin transporter) (P31645 whole entry): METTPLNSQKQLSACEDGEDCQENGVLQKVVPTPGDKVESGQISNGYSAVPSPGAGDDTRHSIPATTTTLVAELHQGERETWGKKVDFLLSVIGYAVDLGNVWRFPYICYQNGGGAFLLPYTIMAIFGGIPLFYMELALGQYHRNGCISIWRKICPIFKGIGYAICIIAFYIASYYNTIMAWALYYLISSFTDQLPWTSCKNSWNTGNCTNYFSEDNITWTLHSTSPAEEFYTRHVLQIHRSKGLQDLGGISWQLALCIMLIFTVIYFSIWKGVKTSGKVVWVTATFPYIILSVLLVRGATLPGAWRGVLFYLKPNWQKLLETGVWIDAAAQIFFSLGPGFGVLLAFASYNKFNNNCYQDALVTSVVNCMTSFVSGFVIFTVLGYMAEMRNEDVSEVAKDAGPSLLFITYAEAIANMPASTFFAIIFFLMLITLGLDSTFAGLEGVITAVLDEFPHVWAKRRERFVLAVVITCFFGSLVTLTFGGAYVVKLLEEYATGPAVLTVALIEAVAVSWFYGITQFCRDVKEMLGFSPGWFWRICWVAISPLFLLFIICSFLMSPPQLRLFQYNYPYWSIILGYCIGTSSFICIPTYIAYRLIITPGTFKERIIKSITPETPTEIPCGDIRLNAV
# Sequence of hNET (norepinephrine transporter) (P23975 whole entry): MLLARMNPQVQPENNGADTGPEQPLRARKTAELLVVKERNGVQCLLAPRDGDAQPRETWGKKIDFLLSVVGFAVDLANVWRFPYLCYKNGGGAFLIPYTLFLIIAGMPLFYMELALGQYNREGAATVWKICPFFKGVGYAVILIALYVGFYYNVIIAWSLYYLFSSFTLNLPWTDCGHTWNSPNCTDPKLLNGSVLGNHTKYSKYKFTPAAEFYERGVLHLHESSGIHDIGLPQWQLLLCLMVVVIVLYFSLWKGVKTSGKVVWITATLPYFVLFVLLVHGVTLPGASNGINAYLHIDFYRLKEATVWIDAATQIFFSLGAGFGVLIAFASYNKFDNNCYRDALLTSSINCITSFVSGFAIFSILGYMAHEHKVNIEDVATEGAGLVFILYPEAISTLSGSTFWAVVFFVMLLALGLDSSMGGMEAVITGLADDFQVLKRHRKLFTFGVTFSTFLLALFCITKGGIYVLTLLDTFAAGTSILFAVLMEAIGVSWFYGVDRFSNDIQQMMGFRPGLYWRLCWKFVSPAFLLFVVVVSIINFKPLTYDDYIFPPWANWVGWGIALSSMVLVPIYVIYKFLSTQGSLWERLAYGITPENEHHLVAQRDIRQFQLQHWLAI
# Sequence of dopamine D4 receptor (P21917 whole entry): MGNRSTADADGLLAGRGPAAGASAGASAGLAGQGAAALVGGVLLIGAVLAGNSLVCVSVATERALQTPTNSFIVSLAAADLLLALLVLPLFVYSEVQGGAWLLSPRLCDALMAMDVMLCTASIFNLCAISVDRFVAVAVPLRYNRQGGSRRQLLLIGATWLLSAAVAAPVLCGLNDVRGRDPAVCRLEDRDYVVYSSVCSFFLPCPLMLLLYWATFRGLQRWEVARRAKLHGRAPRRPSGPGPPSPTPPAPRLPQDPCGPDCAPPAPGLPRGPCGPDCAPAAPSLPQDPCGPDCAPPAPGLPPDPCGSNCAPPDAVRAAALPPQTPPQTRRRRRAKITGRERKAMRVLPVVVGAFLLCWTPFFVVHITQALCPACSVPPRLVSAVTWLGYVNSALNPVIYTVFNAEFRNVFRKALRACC
smiles,measurement,setting,value
"C[C@@H](CN1CCC(Cc2ccccc2)CC1)C(O)c1ccc(O)cc1 (stereo partly shown) [MI-4, Ro-25-6981]",Ki,[1],365 nM
same,Ki,dopamine D4 receptor,120 nM
same,Ki,[2],670 nM
same,Ki,[3],3460 nM

# Source: paper PMC9575003 (Pharmacology, biochemistry, and behavior, 2016)
